Legend:
[1] = target: T1, DC-SIGN (ECD) (Homo sapiens, UniProt Q9NNX6); experiment: competitive 19F-R2 filtered NMR experiments (spy molecule 6-F-ManαOMe); type: binding; conditions: for loss in affinity versus the trisaccharide 1: fluorinated disaccharides versus 1; for weaker ligand relative to best binders (1b, 1c, 1d): fold loss of affinity from KI values; for Ki: non-linear least squares fitting, [6-F-ManαOMe] 400 µM, [DC-SIGN (CRDs)] 10 µM, 298 K, pH 8.0
T1 construct: DC-SIGN full extracellular domain (ECD, residues 70-404, Thermo Fischer Scientific); made in house
T1 sequence (Q9NNX6 70-404): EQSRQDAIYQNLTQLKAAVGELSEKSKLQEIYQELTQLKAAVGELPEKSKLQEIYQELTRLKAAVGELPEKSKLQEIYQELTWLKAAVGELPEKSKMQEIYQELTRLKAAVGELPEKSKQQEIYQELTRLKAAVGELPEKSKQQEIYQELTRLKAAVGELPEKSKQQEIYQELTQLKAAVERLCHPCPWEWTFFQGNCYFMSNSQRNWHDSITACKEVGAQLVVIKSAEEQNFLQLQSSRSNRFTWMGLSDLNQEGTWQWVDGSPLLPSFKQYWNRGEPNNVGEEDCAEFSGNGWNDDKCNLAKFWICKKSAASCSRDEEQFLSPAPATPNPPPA
Source text: In order to gain insights into the effects that the different fluorination patterns may have in the binding event, the affinities of 1b, the natural analogue of 1, as well as 1c and 1d, two partially fluorinated trisaccharides, were also estimated. (Table 2, Figure S1).
For KD estimation of 6-deoxy-6-F-Man (the spy-molecule), the free evolution delay was set to an optimized value τ=1 ms , after using relaxation dispersion experiments to assure a negligible chemical exchange contribution to R2,obs (Figure S1a). The KI of 1, 1b-d, 2, and 3 with DC-SIGN (ECD) was determined by titration experiments in a competitive fashion. Increasing amounts of the competitor molecules (compounds 1, 1b-d, 2, and 3) were added to a solution mixture of the spy molecule and the protein in each case, calculating the R2,obs of the spy molecule at each competitor concentration while the ratio [Spy-molecule]/[Protein] is fixed (40:1) (Figure S1c).
19F-R2 filtered experiments
The KD of compounds 1, 1b-d, 2 and 3 was estimated applying a 19F-R2 filtered approach. 6-F-ManαOMe, which weakly binds to DC-SIGN, was selected as the spy molecule. Relaxation rates R2 were determined employing a CPMG pulse sequence, by fitting the observed 19F signal intensity to the exponential decay curve:
ܫ(ݐ) = ܫ଴݁ି௧ோమ = ܫ଴݁ି௡ଶఛோమ (1) where ܫ(ݐ) refers to intensity at time ݐ, ܫ଴ is intensity at ݐ = 0, and ܴଶ is the transversal relaxation rate (ܴଶ = 1/ܶଶ).
In the limit of fast-exchange where the exchange contribution to the observed transversal relaxation rate ܴଶ,௢௕௦ is insignificant (Figure S1, a)), the following equations apply:
ܴଶ,௢௕௦ = ܴଶ,௙ + ൫ܴଶ,௕ − ܴଶ,௙൯݌௕ (2)
[ܲ]் + [ܮ]் + ܭ஽ − ඥ([ܲ]் + [ܮ]் + ܭ஽)ଶ − 4[ܲ]்[ܮ]் (3) where [ܲ]் and [ܮ]் are the total protein and ligand concentrarion respectively, [ܴ]ଶ,௙ and [ܴ]ଶ,௕ are the relaxation rates in the free and bound states, ݌௕ is the fraction of bound ligand and ܭ஽ the dissociation constant of the protein-ligand complex. [ܴ]ଶ,௙ of 6-F-ManαOMe was measured in absence of the lectin, and Equation 2 was used to estimate ܭ஽and [ܴ]ଶ,௕ for the […]
Then, ܭூ of compounds 1, 1b-d, 2 and 3 was measured in a competitive manner. ܴଶ,௢௕௦ of 6-F-ManαOMe (spy molecule) in solution with DC-SIGN ECD was monitored at 5 different competitor concentrations ([ܫ]) in each case with a fixed [ܲ]்/[ܮ]் ratio (Figure S1, c)), to derive ܭூ by fitting to Equation 2 with ݌௕ as defined in Equations (4) and (5) (Table 2):
݌௕ = 3ܭ + 2 cos൫ߠൗ ൯ √ܽଶ − 3ܾ − ܽ (4)
ߠ = cos ൬ ଶඥ(௔మିଷ௕)య ൰, ܽ = ܭ஽ + ܭூ + [ܮ]் + [ܫ]் − [ܲ]், ܾ = ([ܫ]் − [ܲ]்)ܭ஽ + ([ܮ]் − [ܲ]்)ܭ஽ + ܭூܭ஽, ܿ = −ܭூܭ஽[ܲ]்
Figure S1. 19F-R2 filtered experiments. a) Relaxation dispersion experiment for 6-F-ManαOMe (the spy molecule). R2,obs of the 19F nucleus is measured for different values of ωCPMG. Ligand and protein sample concentrations were: [6-F-ManαOMe] = 400 µM, [DC-SIGN (CRDs)] = 10 µM (counting concentration of CRDs, i.e, 4 CRDs per DC-SIGN ECD tetramer). For ωCPMG > 1000 s-1, there is virtually negligible exchange contribution to R2. Therefore, all the subsequent R2 filtered experiments were carried out with τCPMG = 1/ωCPMG = 1 ms. b) KD determination of 6-F-ManαOMe with DC-SIGN. R2,obs was measured for increasing amounts of [6-F-ManαOMe]/[DC-SIGN (CRDs)] (blue dots). KD and R2,b were obtained from fitting to Equation 2, which is valid in the fast-exchange regime (Rex = 0) [39a]. The predicted values at each [6-F-ManαOMe]/[DC-SIGN (CRDs)] are shown as red stars for comparison c) Titration curves showing the variation in 19F-R2,obs of the spy molecule 6-F-ManαOMe, when increasing amounts of the competitors (I) 1, 1b-d, 2 and 3 are added to a mixture [6-F-ManαOMe] = 400 µM, [DC-SIGN (CRDs)] = 10 µM. […]

[2] = target: T2, DC-SIGN (ECD tetramer) (Homo sapiens, UniProt Q9NNX6); experiment: 2D-STD-TOCSYreF NMR experiments (binding epitope); conditions: for total relative STD per Man ring: normalized to the global observed STD; for % STD (normalized): normalized to largest STD in each molecule
T2 construct: DC-SIGN full extracellular domain (ECD, residues 70-404, Thermo Fischer Scientific); made in house
T2 sequence (Q9NNX6 70-404): T1 sequence (Q9NNX6 70-404)
Source text: The interaction between DC-SIGN and the three Man-based 2-deoxy-fluoro oligosaccharides (Figure 1) was first analyzed using 2D-STD-TOCSYreF experiments (Figure 2). A long TOCSY mixing time (128 ms) was used to extend the polarization to all protons within the same spin system for each Man ring. The enhanced resolution of the 2D-TOCSYreF allowed the assignment of most of the STD NMR cross peaks with high reliability for the three fluorinated compounds (Figure 2 and Table 1). Generally speaking, the inherent loss of sensitivity due to the heteronuclear reF transfer in the 2D-STD-TOCSYreF experiments is overcompensated by the gained spectral dispersion.
Figure 2 2D-TOCSYreF off-resonance spectrum (red) and 2D-STD-TOCSYreF peaks (blue) obtained for 1 (top panel), 2 (central panel) and 3 (bottom panel) in the presence of DC-SIGN. The ^19F NMR frequencies are given in the abscissa axis and the ^1H NMR frequencies in the ordinate axis. The STD cross peaks are shifted to high field in the ^19F frequency to facilitate visual inspection. Every blue cross peak corresponds to the STD NMR intensity of the particular ^1H NMR nucleus in a given monosaccharide, which is encoded by the ^19F frequency. The ligand concentration was 1.4 mM in each case, with 9.14 μM of DC-SIGN tetramer, thus containing four carbohydrate recognition domains (CRD) (ligand/protein-CRD ratio is 38:1). The on-resonance irradiation was set to 0.85 ppm, with a saturation time of 2 s. The relative STD values, shown by colored circles, are obtained from the ratio between the corresponding peaks in the 2D STD-TOCSY-reF and 2D-TOCSYreF off-resonance spectra, and normalized to the largest STD in each molecule. The circles connected by a colored thin line correspond to overlapped signals in the spectrum, so that the STD intensity is shown as ‘spread’ between the corresponding ^1H nuclei (meaning each of these protons may contribute or not to the total STD observed). In this case, the added STD intensity is given. The total relative STD per Man ring for each molecule is also specified with a colored tag, using the same color code as the circles. TEXT PRINTED IN THE PICTURE: 1: % STD (Man II): 44 %; % STD (Man III): 9 %; % STD (Man I): 47 % | 2: % STD (Man III): 11 %; % STD (Man I): 89 % | 3: % STD (Man II): 70 %; % STD (Man III): 30 % DOUBTS OF THE COPYIST ABOUT THIS PICTURE: The percent tags are matched to the Man I/II/III rings by position and colour only. The measure '% STD' is printed only at the colour bar. / The percent tags are relative STD-NMR values per sugar ring (binding epitope), so it is uncertain whether they count as a result or belong to the excluded spectra.
Samples for the 2D STD-TOCSY-reF contained 9.14 µM ECD (tetramer) and 153 eq. of ligand (1.4 mM, the ratio ligand/protein (CRD) is 38:1) in each case. The 2D STD-TOCSY-reF setup consists on a proton saturation transfer scheme (^1Hprotein→^1Hligand-STD) with subsequent evolution through JHH couplings (TOCSY), to finally refocus the STD-edited information in the ^19F dimension (reF). As STD parameters, selective saturation was applied for 2 s using 90º PC9 pulses of 10 ms length, with on-resonance saturation set at 0.85 ppm and off-resonance at 60 ppm. The TOCSY mixing time used was 128 ms, and the corresponding JHF evolution and refocusing delays in the reF module were Δ^H = 10.4 ms and Δ^F = 6 ms, respectively. The relative saturation values (%) were calculated from the ratio between peaks in the 2D STD-TOCSY-reF spectrum and the corresponding ones in the off-resonance TOCSY-reF spectrum.

[3] = proton ManI-1, ligand 1.4 mM, 9.14 µM tetramer, 2 s saturation at 0.85 ppm

Row | Compound | loss in affinity versus the trisaccharide 1 [1] | weaker ligand relative to best binders (1b, 1c, 1d) [1] | Ki [1] | total relative STD per Man ring ([2]; Man II ring) | total relative STD per Man ring ([2]; Man III ring) | % STD (normalized) ([2]; overlapped protons ManII-3/6) | % STD (normalized) ([2]; overlapped protons ManII-4/5) | % STD (normalized) ([2]; proton ManII-1) | % STD (normalized) ([2]; proton ManII-2) | % STD (normalized) ([2]; proton ManIII-1) | % STD (normalized) ([2]; proton ManIII-2) | total relative STD per Man ring ([2]; Man I ring) | % STD (normalized) [2, 3] | % STD (normalized) ([2]; proton ManI-2) | % STD (normalized) ([2]; proton ManI-3) | other results
1 | CO[C@H]1O[C@H](CO[C@H]2O[C@H](CO)[C@@H](O)[C@H](O)[C@@H]2F)[C@@H](O)[C@H](O)[C@@H]1F [compound 3] | ca. two-fold | four-fold weaker | 4 mM | 70% | 30% | 86% | 100% | 31% | 45% | 33% | 31% | – | – | – | – | % STD (normalized) ([2]; overlapped protons ManIII-3/4/5/6): 47%
2 | CO[C@H]1O[C@H](CO[C@H]2O[C@H](CO)[C@@H](O)[C@H](O)[C@@H]2O)[C@@H](O)[C@H](O[C@H]2O[C@H](CO)[C@@H](O)[C@H](O)[C@@H]2O)[C@@H]1F [1c] | – | – | 1 mM | – | – | – | – | – | – | – | – | – | – | – | – | –
3 | CO[C@H]1O[C@H](CO)[C@@H](O)[C@H](O[C@H]2O[C@H](CO)[C@@H](O)[C@H](O)[C@@H]2F)[C@@H]1F [compound 2] | ca. four-fold | nine- | 9.6 mM | – | 11% | – | – | – | – | 17% | 14% | 89% | 15% | 33% | 74% | % STD (normalized) ([2]; proton ManI-4): 100%; % STD (normalized) ([2]; proton ManI-5): 22%
4 | CO[C@H]1O[C@H](CO[C@H]2O[C@H](CO)[C@@H](O)[C@H](O)[C@@H]2F)[C@@H](O)[C@H](O[C@H]2O[C@H](CO)[C@@H](O)[C@H](O)[C@@H]2F)[C@@H]1F [compound 1] | – | two-fold weaker | 2.5 mM | 44% | 9% | 47% | 52% | 19% | 31% | – | – | 47% | 16% | 42% | 100% | binding free energy difference ([1]; corresponding to the variation in affinity of 1 versus 1b): ca. 1 kcal/mol; variation in binding affinity ([1]; trifluorinated 1 versus 1b): 2.5 fold; % STD (normalized) ([2]; overlapped protons ManIII-1/2): 31%
